In US9409884B2 (Rigel Pharmaceuticals, Inc., priority 2012, dated 2016):

Target: AMPK
Assay: AMPK activation, enzyme-linked immunosorbent assay
Type: biochemical
Conditions: Table 14, compounds of Table 7
Outline: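 Read-out: ELISA, used to detect compound-driven activation of AMPK.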

Row | Compound | EC50
1 | COc1ccc(C(=O)C2CCN(C(=O)c3ccc(C(=O)NC4CCN(Cc5ccc(OC)c(F)c5)C[C@@H]4C)cn3)CC2)cc1 (stereo partly drawn) [Compound 7-96, N-((3,4-cis)-1-(3-fluoro-4-methoxybenzyl)-3-methylpiperidin-4-yl)-6-(4-(4-methoxybenzoyl)piperidine-1-carbonyl)nicotinamide] | < 1 µM
2 | COc1ccc(C(=O)C2CCN(C(=O)c3ccc(C(=O)NC4CCN(Cc5ccc(F)c(OC)c5)C[C@@H]4C)cn3)CC2)cc1 (stereo partly drawn) [Compound 7-97, N-((3,4-cis)-1-(4-fluoro-3-methoxybenzyl)-3-methylpiperidin-4-yl)-6-(4-(4-methoxybenzoyl)piperidine-1-carbonyl)nicotinamide] | < 1 µM
3 | COc1ccc(C(=O)C2CCN(C(=O)c3ccc(C(=O)NC4CCN(Cc5ccc(C#N)c(F)c5)C[C@@H]4C)cn3)CC2)cc1 (stereo partly drawn) [Compound 7-98, N-((3,4-cis)-1-(4-cyano-3-fluorobenzyl)-3-methylpiperidin-4-yl)-6-(4-(4-methoxybenzoyl)piperidine-1-carbonyl)nicotinamide] | < 1 µM
4 | COc1ccc(C(=O)C2CCN(C(=O)c3ccc(C(=O)NC4CCN(Cc5ccc(C#N)c(OC)c5)C[C@@H]4C)cn3)CC2)cc1 (stereo partly drawn) [Compound 7-99, N-((3,4-cis)-1-(4-cyano-3-methoxybenzyl)-3-methylpiperidin-4-yl)-6-(4-(4-methoxybenzoyl)piperidine-1-carbonyl)nicotinamide] | < 1 µM
5 | COc1ccc(C(=O)C2CCN(C(=O)c3ccc(C(=O)NC4CCN(Cc5ccc(OC)c(C#N)c5)C[C@@H]4C)cn3)CC2)cc1 (stereo partly drawn) [Compound 7-100, N-((3,4-cis)-1-(3-cyano-4-methoxybenzyl)-3-methylpiperidin-4-yl)-6-(4-(4-methoxybenzoyl)piperidine-1-carbonyl)nicotinamide] | < 1 µM
6 | COc1ccc(C(=O)C2CCN(C(=O)c3ccc(C(=O)NC4CCN(Cc5ccc(C#N)cc5)C[C@@H]4C(F)(F)F)cn3)CC2)cc1 (stereo partly drawn) [Compound 7-101, N-((3,4-cis)-1-(4-cyanobenzyl)-3-(trifluoromethyl)piperidin-4-yl)-6-(4-(4-methoxybenzoyl)piperidine-1-carbonyl)nicotinamide] | < 1 µM
7 | COc1ccc(CN2CCC(NC(=O)c3ccc(C(=O)N4CCC(C(=O)c5ccc(OC)cc5)CC4)nc3)[C@@H](C(F)(F)F)C2)cc1 (stereo partly drawn) [Compound 7-102, 6-(4-(4-methoxybenzoyl)piperidine-1-carbonyl)-N-((3,4-cis)-1-(4-methoxybenzyl)-3 - (trifluoromethyl)piperidin-4-yl)nicotinamide] | < 1 µM
8 | COc1ccc(C(=O)C2CCN(C(=O)c3cc(C)c(C(=O)NC4CCN(Cc5ccc(C#N)cc5)CC4)cn3)CC2)cc1 [Compound 7-105, N-(1-(4-cyanobenzyl)piperidin-4-yl)-6-(4-(4-methoxybenzoyl)piperidine-1-carbonyl)-4-methylnicotinamide] | < 1 µM
9 | O=C(NC1CCN(Cc2ccc(OC(F)(F)F)cc2)CC1)c1ccc(C(=O)N2CCC(Oc3cccc(NC(=O)C4CC4)c3)CC2)nc1 [Compound 7-108, 6-(4-(3-(cyclopropanecarboxamido)phenoxy)piperidine-1-carbonyl)-N-(1-(4-(trifluoromethoxy)benzyl)piperidin-4-yl)nicotinamide] | < 1 µM
10 | COc1ccc(CN2CCC(NC(=O)c3ccc(C(=O)N4CCC(C(=O)c5ccc(N6CCCC6)cc5)CC4)nc3)CC2)cc1 [Compound 7-109, N-(1-(4-methoxybenzyl)piperidin-4-yl)-6-(4-(4-(pyrrolidin-1-yl)benzoyl)piperidine-1-carbonyl)nicotinamide] | < 1 µM
11 | O=C(NC1CCN(Cc2ccc(OC(F)(F)F)cc2)CC1)c1ccc(C(=O)N2CCC(C(=O)c3ccc(N4CCCC4)cc3)CC2)nc1 [Compound 7-110, 6-(4-(4-(pyrrolidin-1-yl)benzoyl)piperidine-1-carbonyl)-N-(1-(4-(trifluoromethoxy)benzyl)piperidin-4-yl)nicotinamide] | < 1 µM
12 | O=C(NC1CCN(Cc2cccc(OC(F)(F)F)c2)CC1)c1ccc(C(=O)N2CCC(C(=O)c3ccc(N4CCCC4)cc3)CC2)nc1 [Compound 7-111, 6-(4-(4-(pyrrolidin-1-yl)benzoyl)piperidine-1-carbonyl)-N-(1-(3-(trifluoromethoxy)benzyl)piperidin-4-yl)nicotinamide] | < 1 µM
13 | N#Cc1ccc(O[C@H]2CC[C@@H](NC(=O)c3ccc(C(=O)N4CCC(C(=O)c5ccc(N6CCCC6)cc5)CC4)nc3)CC2)cc1 [Compound 7-112, N-((cis)-4-(4-cyanophenoxy)cyclohexyl)-6-(4-(4-(pyrrolidin-1-yl)benzoyl)piperidine-1-carbonyl)nicotinamide] | < 1 µM
14 | COc1ccc(CN2CCC(NC(=O)c3ccc(C(=O)N4CCC(C(=O)c5ccc(N6CCCC6)cc5)CC4)nc3)CC2)cc1F [Compound 7-113, N-(1-(3-fluoro-4-methoxybenzyl)piperidin-4-yl)-6-(4-(4-(pyrrolidin-1-yl)benzoyl)piperidine-1-carbonyl)nicotinamide] | < 1 µM
15 | O=C(NC1CCN(Cc2ccc(N3CCCC3)cc2)CC1)c1ccc(C(=O)N2CCC(C(=O)c3ccc(N4CCCC4)cc3)CC2)nc1 [Compound 7-114, 6-(4-(4-(pyrrolidin-1-yl)benzoyl)piperidine-1-carbonyl)-N-(1-(4-(pyrrolidin-1-yl)benzyl)piperidin-4-yl)nicotinamide] | < 1 µM
16 | COc1ccc(C(=O)C2CCN(C(=O)c3ccc(C(=O)NC4CCNCC4)cn3)CC2)cc1 [Compound 7-115, 6-(4-(4-methoxybenzoyl)piperidine-1-carbonyl)-N-(piperidin-4-yl)nicotinamide] | 50 to 100 µM
17 | CC(C)Oc1ccc(CN2CCC(NC(=O)c3ccc(C(=O)N4CCC(C(=O)c5ccc(N6CCCC6)cc5)CC4)nc3)CC2)cc1 [Compound 7-116, N-(1-(4-isopropoxybenzyl)piperidin-4-yl)-6-(4-(4-(pyrrolidin-1-yl)benzoyl)piperidine-1-carbonyl)nicotinamide] | < 1 µM
18 | N#Cc1ccc(CN2CCC(NC(=O)c3ccc(C(=O)N4CCC(C(=O)c5ccc(N6CCCC6)cc5)CC4)nc3)CC2)cc1F [Compound 7-117, N-(1-(4-cyano-3-fluorobenzyl)piperidin-4-yl)-6-(4-(4-(pyrrolidin-1-yl)benzoyl)piperidine-1-carbonyl)nicotinamide] | < 1 µM
19 | N#Cc1ccc(CN2CCC(NC(=O)c3ccc(C(=O)N4CCC(Oc5ccc(S(=O)(=O)C(F)(F)F)cc5)CC4)nc3)CC2)cc1 [Compound 7-118, N-(1-(4-cyanobenzyl)piperidin-4-yl)-6-(4-(4-(trifluoromethylsulfonyl)phenoxy)piperidine-1-carbonyl)nicotinamide] | < 1 µM
20 | COc1ccc(CN2CCC(NC(=O)c3ccc(C(=O)N4CCC(Oc5ccc(C(=O)C6CC6)cc5)CC4)nc3)CC2)cc1 [Compound 7-120, 6-(4-(4-(cyclopropanecarbonyl)phenoxy)piperidine-1-carbonyl)-N-(1-(4-methoxybenzyl)piperidin-4-yl)nicotinamide] | < 1 µM
21 | CS(=O)(=O)c1ccc(OC2CCN(C(=O)c3ccc(C(=O)Nc4ccc(Oc5ccc(C#N)cc5)nc4)cn3)CC2)cc1 [Compound 7-121, N-(6-(4-cyanophenoxy)pyridin-3-yl)-6-(4-(4-(methylsulfonyl)phenoxy)piperidine-1-carbonyl) nicotinamide] | < 1 µM
